Measurements published in US11071731B2, “Allosteric modulators of the mu opioid receptor” (Chiromics, LLC, priority 2017, dated 2021).

Experiments:
mu opioid receptor (MOR) [1] = molecular target: T1, mu opioid receptor (MOR) (Homo sapiens, UniProt P35372); test: PathHunter β-arrestin recruitment assay, PAM mode with EC20 endomorphin-1; assay type: cell-based; conditions: for EC50: β-arrestin recruitment, read-out: β-arr. EC50
Method: The effects of MOR PAMs and MOR SAMs on receptor activity were assayed using the PathHunter enzyme complementation assay technology (DiscoveRx, CA). A description of the technology employed is as follows.
Beta-Arrestin Pathway: The PathHunter β-arrestin assay monitors the activation of a GPCR in a homogenous, non-imaging assay format using a technology developed by DiscoveRx called Enzyme Fragment Complementation (EFC) with beta-galactosidase (β-Gal) as the functional reporter. […] EA is fused to β-Arrestin and ED is fused to the GPCR of interest. When the GPCR is activated and β-arrestin is recruited to the receptor, ED and EA complementation occurs, restoring β-gal activity, which is measured using chemiluminescent PathHunter Detection Reagents.
In this manner an EC50 for each test compound, and percent maximal response for each test compound, were determined for both the β-arrestin and cAMP pathways. Though the pharmacological effects of a given signal bias can be hypothesized (Raehal et al. (2011) Pharmacol. Rev. 63:1001-1019), it is not possible to know with certainty which bias ratio will be most advantageous in a clinical setting. […] Kenakin 2015a, supra. The information associated with the compounds detailed herein is the first large data set available for the prediction of ligand bias for an MOR PAM.

mu opioid receptor (MOR) [2] = molecular target: T1, mu opioid receptor (MOR); test: Hit Hunter cAMP signaling assay (adenylyl cyclase inhibition), PAM mode with EC20 endomorphin-1; assay type: cell-based; conditions: for EC50: adenylyl cyclase inhibition, read-out: cAMP EC50
[3] = maximal response for β-arrestin recruitment
[4] = maximal response for adenylyl cyclase inhibition

T1 sequence (P35372 whole entry): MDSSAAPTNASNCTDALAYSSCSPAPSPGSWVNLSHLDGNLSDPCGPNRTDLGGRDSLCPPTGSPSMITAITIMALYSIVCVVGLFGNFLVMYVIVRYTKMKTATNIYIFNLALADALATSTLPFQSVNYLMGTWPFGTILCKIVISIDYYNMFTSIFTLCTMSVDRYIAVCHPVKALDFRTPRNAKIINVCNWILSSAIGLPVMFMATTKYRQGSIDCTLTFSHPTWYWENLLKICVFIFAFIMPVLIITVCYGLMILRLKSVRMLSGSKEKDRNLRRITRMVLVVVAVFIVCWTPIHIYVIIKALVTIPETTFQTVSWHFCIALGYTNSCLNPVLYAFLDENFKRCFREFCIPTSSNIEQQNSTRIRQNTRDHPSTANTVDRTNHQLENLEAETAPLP

SMILES	β-arr Max. Resp. (mu opioid receptor (MOR) [1]; [3])	EC50 (mu opioid receptor (MOR) [1]) [nM]	EC50 (mu opioid receptor (MOR) [2]) [nM]	cAMP Max. Resp. (mu opioid receptor (MOR) [2]; [4])	β-arr. Max Resp. (mu opioid receptor (MOR) [1]; maximal response for β-arrestin recruitment, Table 3)	EC50 (mu opioid receptor (MOR) [1]; Table 3) [nM]	EC50 (mu opioid receptor (MOR) [2]; Table 3) [nM]	cAMP Max Resp. (mu opioid receptor (MOR) [2]; maximal response for adenylyl cyclase inhibition, Table 3)
CC1CCN(S(=O)(=O)c2ccc(Cl)cc2)C1c1ccc(F)c(F)c1 (mixture of isomers) [Compound 97]	F (F represents a maximal response of > 60%)	700 to 2100	700 to 2100	D (D represents a maximal response of < 40%)				
CC1CCN(S(=O)(=O)c2ccc(Cl)cc2)C1c1ccc(F)c(F)c1F (mixture of isomers) [Compound 98]	E (E represents a maximal response of 40-60%)	> 2100	> 2100	D (D represents a maximal response of < 40%)				
CC1CCN(S(=O)(=O)c2ccc(Cl)cc2)C1c1ccc(Cl)c(Br)c1 (mixture of isomers) [Compound 99]	E (E represents a maximal response of 40-60%)	< 700	< 700	D (D represents a maximal response of < 40%)				
Cc1cc(C2C(C)CCN2S(=O)(=O)c2ccc(Cl)cc2)ccc1F (mixture of isomers) [Compound 101]	F (F represents a maximal response of > 60%)	700 to 2100	< 700	D (D represents a maximal response of < 40%)				
COc1ccc(C2C(C)CCN2S(=O)(=O)c2ccc(Cl)cc2)cc1Br (mixture of isomers) [Compound 102]	F (F represents a maximal response of > 60%)	> 2100	700 to 2100	E (E represents a maximal response of 40-60%)				
COc1ccc(C2N(S(=O)(=O)c3ccc(Cl)cc3)CCC2(F)C(F)(F)F)cc1Br (mixture of isomers) [Compound 103]	F (F represents a maximal response of > 60%)	> 2100	700 to 2100	D (D represents a maximal response of < 40%)				
Cc1ccc(C2C(C)CCN2S(=O)(=O)c2ccc(Cl)cc2)cc1Br (mixture of isomers) [Compound 104]	F (F represents a maximal response of > 60%)	700 to 2100	700 to 2100	D (D represents a maximal response of < 40%)				
CC1CCN(S(=O)(=O)c2ccc(Cl)cc2)C1c1ccc(F)c(Cl)c1 (mixture of isomers) [Compound 105]	F (F represents a maximal response of > 60%)	700 to 2100	700 to 2100	D (D represents a maximal response of < 40%)				
[O-][S+]1CCN(c2nc(Cl)ncc2F)C(c2cc(F)cc(C(F)(F)F)c2)C1 (mixture of isomers) [Compound 302]	E (E represents a maximal response of 40-60%)	> 2100	> 2100	D (D represents a maximal response of < 40%)				
CC1CCN(S(=O)(=O)c2ccc(Cl)cc2)C1c1ccc(F)c(C(F)(F)F)c1 (mixture of isomers) [compound 100]	F (F represents a maximal response of > 60%)	< 700	> 2100	D (D represents a maximal response of < 40%)	76	522	> 25000	25
COc1ccc(C2N(S(=O)(=O)c3ccc(Cl)cc3)CCC2(F)F)cc1Br (racemic) [Compound 85]	D (D represents a maximal response of < 40%)	> 2100	> 2100	D (D represents a maximal response of < 40%)				
O=S(=O)(c1ccc(Cl)cc1)N1CCOCC1c1ccc(F)c(Br)c1 (racemic) [Compound 185]	F (F represents a maximal response of > 60%)	700 to 2100	> 2100	D (D represents a maximal response of < 40%)				
Fc1cnc(Cl)nc1N1CCOCC1c1cccc(C(F)(F)F)n1 (racemic) [Compound 186]	E (E represents a maximal response of 40-60%)	> 2100	> 2100	D (D represents a maximal response of < 40%)				
